Where a SMILES comes first, the peptide text is derived from it.
How the values were obtained:
importin β = experiment: Biochemical pulldown (GFP-Trap) for DPR-induced Rango-importin β dissociation; assay type: binding, human; conditions: increasing concentrations of DPRs
Method: GFP-Trap magnetic beads (Chromotek, Planegg-Martinsried, Germany) were washed and resuspended in TTBS. At the end of incubation, 8 µl bead suspension was added to each sample and mixed by rotation for 15 min. The supernatant was removed and beads washed 3 times with TTBS before boiling in 20 µl SDS-PAGE sample buffer with 2% β-mercaptoethanol. Samples were separated by SDS-PAGE and anti-GFP western blot performed as detailed below to detect Rango. After detecting the ECL signal, membranes were stained with Coomassie Brilliant R250 to detect importin β. Background-subtracted signals were determined by Image Lab 6.01 (BioRad) and the Rango ECL signal normalized to the importin β signal within each lane.
Supernatant and pellet fractions (for all 5 DPRs, and control/buffer only) were prepared as in the nuclear transport assays, by adding 100 µM 10mers to 2.5 mg/ml HEK lysate in 100 µL TRB. Supernatants were boiled in Laemmli (BioRad) for 5 min. Pellets were boiled for 15 min followed by sonication in order to fully disperse aggregates for SDS-PAGE. Equal volumes of supernatant and pellet fractions were run on 4–12% Bolt Bis-Tris Plus gels (ThermoFisher), transferred to nitrocellulose membrane using an iBlot2 dry blotting system (ThermoFisher). Protein loading was analyzed by BLOT-Faststain (G-biosciences, St. Louis, MO), according to the manufacterers’ instructions. For immunodetection, membranes were blocked with 5% non-fat milk in TBST and probed by sequential incubation with the primary antibodies as detailed in the table below. Detection was by HRP-conjugated secondary antibodies/chemiluminescence using an ImageQuant LAS 4000 system (GE, Chicago, IL). To permit sequential probing of membranes without stripping, signals were quenched by incubation with prewarmed 30% H20_2 for 20 min ([Sennepin et al., 2009]). Band intensities were measured by ImageQuant software. For pellet vs. supernatant fractions, all were expressed as percent untreated control. For blots in Figure 1E, samples were run on 4–20% SDS PAGE minigels (ThermoFisher) and blotted to PVDF membranes (Immun-Blot PVDF, Bio-Rad) using the Bio-Rad TransBlot Turbo apparatus, and probed as above. The chemiluminescence signal was captured with a Bio-Rad ChemiDoc XRS+ digital imaging system.

[1] = molecular target: importin β-mediated nuclear import of Rango (Homo sapiens, UniProt Q14974); experiment: Permeabilized cell nuclear import assay, Rango, mouse primary cortical neurons; assay type: cell-based; conditions: for Effect on Rango import, time-lapse imaging: 30 min, up to 100 µM; for Effect on Rango import at steady state: 100 µM, fixed at 2 hr
Description: All animal procedures were approved by the Johns Hopkins Animal Care and Use Committee. Timed pregnant C57BL/6J females (Jackson Laboratory, Bar Harbor, ME) were sacrificed by cervical dislocation at E16, cortex dissociated, and cells plated at 50,000/well on poly-D-lysine/laminin-coated, optical glass-bottom 96-well plates. Growth medium consisted of Neurobasal supplemented with B27, Glutamax, and penicillin/streptomycin (Gibco/ThermoFisher). At 5–7 days in vitro, neurons were rinsed in prewarmed PBS and permeabilized for 4 min. at 37° in a hypotonic solution containing […] Tris-HCl pH 7.5 (to cause osmotic swelling) and 50–150 mg/ml BSA (for molecular crowding/mechanical support). Following permeabilization, cells were placed on ice and rinsed 2 × 5 min in transport buffer (TRB, 20 mM HEPES, 110 mM KOAc, 2 mM Mg(OAc)2, 5 mM NaOAc, 0.5 mM EGTA, 250 mM sucrose, pH 7.3, with protease inhibitor cocktail). All rinse and assay buffers were supplemented with 50 mg/mL BSA. The optimal hypotonic buffer and BSA concentration varied by batch, and was optimized prior to each set of assays for ability to permeabilize the majority of plasma membranes while maintaining nuclear exclusion of a 70 kD fluorescent dextran (ThermoFisher).
Concentrated whole cell lysates were prepared from HEK293T cells (ATCC, mycoplasma negative and validated by STR profiling), grown in 150 mm dishes and sonicated on ice in 1X TRB in the presence of protease inhibitor cocktail (Roche). The lysates were clarified (15 min, 14000 g, 4C), snap frozen in liquid nitrogen, and stored in single use aliquots at −80C. Total HEK cell RNA was extracted using miRNEasy kits according to the manufacturers’ protocol, with DNase digestion (Qiagen). RNA concentration was measured by Nanodrop (ThermoFisher), and all 260/280 ratios were verified to be > 2.0. Energy regeneration (ER) mix consisted of 100 µM ATP, 100 µM GTP, 4 mM creatine phosphate, and 20 U/mL creatine kinase (Roche).
Reaction mixes consisting of 2.5 mg/ml lysate, ER, fluorescent cargo (200 nM Rango and YFP-M9-CFP, 500 nM GST-GFP-NLS), Hoechst, DPRs, RNA, or inhibitors (100 µM importazole (IPZ, Millipore Sigma); 0.8 mg/mL wheat germ agglutinin (WGA, Millipore Sigma) were assembled on ice during cell permeabilization. DPRs or inhibitors were allowed to equilibrate in cell lysate for at least 30 min prior to initiation of transport. Every plate included: (1) Cargo alone: fluorescent cargo, but no ER or lysate, (2) Untreated controls: fluorescent cargo, ER, and lysate, and (3) Inhibitor: fluorescent cargo, ER, lysate, and IPZ (Rango and GST-GFP-NLS reactions) or WGA (YFP-M9-CFP). Preassembled transport reactions were then transferred onto permeabilized cells via multichannel pipette, and allowed to proceed at room temperature for 2 hr (Rango, YFP-M9-CFP) or 4 hr (GST-GFP-NLS). Cells were fixed in 4% paraformaldehyde/PBS, rinsed 2x with PBS, and transferred to 50% glycerol/PBS for immediate imaging.
For a subset of neuron transport assays, transport was monitored live via time lapse imaging every 5 min for 30 min. In a subset of HeLa assays, transport reactions were centrifuged before use at 14,000g × 15 min to separate soluble and insoluble fractions. In another variation, the transport lysate + DPR and ER mix was allowed to preincubate on the permeabilized HeLa cells for 1 hour prior to initiation of transport, rinsed 1x with TRB, and transport initiated with fresh lysate, cargo, and ER.
Multiple non-overlapping fields per well (4 for time-lapse imaging, 9-16 for fixed imaging), were captured at 40x on an ImageXpress Micro XLS high-content microscope (Molecular Devices, San Jose, CA), and the ratio of nuclear to cytoplasmic fluorescence intensity was calculated using the MetaXpress automated translocation-enhanced module. Raw data were filtered to exclude autofluorescence and the mean N/C ratio from wells without ER or cell lysate was subtracted from all values.

[2] = test system: passive nuclear influx of GFP; experiment: Passive import assay, GFP, permeabilized HeLa; assay type: cell-based, human; conditions: preincubation 30–60 min, with energy and lysate; imaged 5 min

Chain of importin β-mediated nuclear import of Rango (Q14974 whole entry): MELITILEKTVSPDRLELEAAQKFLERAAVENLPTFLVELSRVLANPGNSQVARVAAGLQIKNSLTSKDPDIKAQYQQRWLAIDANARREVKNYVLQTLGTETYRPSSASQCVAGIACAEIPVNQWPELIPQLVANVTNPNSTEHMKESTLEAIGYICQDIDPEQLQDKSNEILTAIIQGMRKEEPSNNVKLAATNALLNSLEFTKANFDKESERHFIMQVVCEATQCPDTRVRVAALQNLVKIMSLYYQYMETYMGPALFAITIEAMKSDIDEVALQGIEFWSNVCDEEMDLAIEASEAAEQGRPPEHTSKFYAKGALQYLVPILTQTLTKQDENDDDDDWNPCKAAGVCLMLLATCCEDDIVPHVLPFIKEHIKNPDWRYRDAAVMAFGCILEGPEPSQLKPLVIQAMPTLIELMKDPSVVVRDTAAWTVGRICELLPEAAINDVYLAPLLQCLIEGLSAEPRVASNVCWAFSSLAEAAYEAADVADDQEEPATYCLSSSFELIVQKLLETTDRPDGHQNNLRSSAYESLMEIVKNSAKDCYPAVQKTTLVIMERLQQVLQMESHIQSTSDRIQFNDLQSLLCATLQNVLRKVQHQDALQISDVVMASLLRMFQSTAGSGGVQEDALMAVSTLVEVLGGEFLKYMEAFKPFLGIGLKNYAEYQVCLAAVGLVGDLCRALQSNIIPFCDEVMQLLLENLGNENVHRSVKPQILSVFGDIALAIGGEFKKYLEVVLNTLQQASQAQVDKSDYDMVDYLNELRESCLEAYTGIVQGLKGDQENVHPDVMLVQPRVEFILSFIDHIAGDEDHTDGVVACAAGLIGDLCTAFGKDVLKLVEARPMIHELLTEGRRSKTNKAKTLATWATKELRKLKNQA

| Compound | Displacement of importin β from Rango (GFP nanobody bead co-immunoprecipitation) (importin β) | Effect on Rango import, time-lapse imaging [1] | Effect on Rango import at steady state [1] | Effect on passive nuclear influx of GFP [2] | NCT inhibition in permeabilized neurons ([1]; high concentrations) |
| --- | --- | --- | --- | --- | --- |
| N=C(N)NCCC[C@H](NC(=O)[C@@H]1CCCN1C(=O)[C@H](CCCNC(=N)N)NC(=O)[C@@H]1CCCN1C(=O)[C@H](CCCNC(=N)N)NC(=O)[C@@H]1CCCN1C(=O)[C@H](CCCNC(=N)N)NC(=O)[C@@H]1CCCN1C(=O)[C@H](CCCNC(=N)N)NC(=O)[C@@H]1CCCN1C(=O)[C@H](CCCNC(=N)N)NC(=O)[C@@H]1CCCN1C(=O)[C@H](CCCNC(=N)N)NC(=O)[C@@H]1CCCN1C(=O)[C@H](CCCNC(=N)N)NC(=O)[C@@H]1CCCN1C(=O)[C@H](CCCNC(=N)N)NC(=O)[C@@H]1CCCN1C(=O)[C@H](CCCNC(=N)N)NC(=O)[C@@H]1CCCN1)C(=O)O [PR10] (H-PRPRPRPRPRPRPRPRPRPR-OH; N-terminus and C-terminus assumed) | dose-dependent displacement of importin β from the sensor | dose-dependent inhibition of transport |  |  |  |
| PA10: Synthetic 10-mer PA dipeptide repeat with C-terminal lysine and cysteine (PAPAPAPAPAPAPAPAPAPAKC) | little if any effect | no effect | only trace inhibition | not observed |  |
| GPGPGPGPGPGPGPGPGPGPKC [GP10, Synthetic 10-mer GP dipeptide repeat with C-terminal lysine and cysteine] | little if any effect | no effect | no effect | not observed |  |
| GA10: Synthetic 10-mer GA dipeptide repeat with C-terminal lysine and cysteine (GAGAGAGAGAGAGAGAGAGAKC) | little if any effect | no effect | only trace inhibition | not observed | only minimal inhibition at high concentrations |

From publication PMC7051184, “C9orf72 arginine-rich dipeptide repeat proteins disrupt karyopherin-mediated nuclear import” (eLife, 2020)
